According to PubChem BioAssay AID1963448 (Molecular Pharmacology Branch, DTP, NCI, 2024):

Tested on: 616215-338-R-J1-PDC complex spheroid growth, % test/control
Test: Anticancer human tumor 616215-338-R-J1-PDC patient-derived colon adenocarcinoma cell line growth inhibition [Asc]
Conditions: for IC50: curve of first compound; for viability, T/C: stronger effect = lower value
Protocol: Multicellular complex tumor spheroid response to apoptosis pathway targeting inhibitors Alrizomadlin, Pelcitoclax, and Dasminapant in combination with a variety of drugs and investigational agents in selected tumor cell lines
The MDM2 inhibitor alrizomadlin, the Bcl-2/Bcl-xL inhibitor pelcitoclax, and the IAPs inhibitor dasminapant were evaluated both individually and in combination with standard of care and investigational anticancer small molecules within a complex spheroid model of solid tumors. . Complex spheroids include a stromal component modeled by human endothelial cells (HUVEC) and fibroblasts modeled by human mesenchymal stem cells (MSCs). The concentration ranges selected for each drug and investigational agent were based upon clinically achievable concentrations if the clinical Cmax of the agent was known.
Compounds. The drugs and investigational agents: alrizomadlin (APG-115; NSC831270), pelcitoclax (APG-1252; NSC835773), dasminapant (APG-1387;NSC834197), TAK-243 (NSC785004), copanlisib (NSC809693), olaparib (NSC753686), talazoparib (NSC767125), cobimetinib (NSC 768068), eltanexor (KPT-8602, NSC 794443), abemaciclib (NSC 768073), sotorasib (NSC818433), adagrasib (NSC 831453), MRTX-1133 (NSC 836407), Iadademestat (ORY1001, NSC 806812), and RMC-4630 (NSC839698), were obtained from the NCI Developmental Therapeutics Program Chemical Repository. The FDA-approved anticancer drug set is available from the Developmental Therapeutics Program at https://dtp.cancer.gov/organization/dscb/obtaining/available plates.htm. […] The stock solutions were prepared in dimethyl sulfoxide (DMSO, Sigma-Aldrich, St. Louis, MO, cat. D2650) at 800-fold the tested concentration and stored at -70 degrees C prior to their use. All drugs and investigational agents were tested over a range starting from a high concentration at or near the clinical Cmax and decreasing in half-log increments. If the clinical Cmax for an agent had not been determined, the highest concentration tested was 10 microM.
The patient-derived cancer (PDC) cell lines include five colon adenocarcinomas: 186277-243-T-J2-PDC, 616215-338-R-J1-PDC, 439559-082-T-J2-PDC, 463943-066-T-J2-PDC, and 519858-162-T-J1-PDC; three pancreatic carcinomas: 323965-272-R-J2-PDC, 521955-158-R6-J3-PDC, and 521955-158-R2-J5-PDC; two uterine sarcomas: 327498-152-R-J2-PDC and 993429-296-R-J1-PDC; two rhabdomyosarcomas: 755483-174-R-J1-PDC and 772245-204-R-J1-PDC; two soft tissue sarcomas: 126254-015-R-J1-PDC and 494315-158-R-J1-PDC; two malignant fibrous histiocytomas: 317291-083-R-J1-PDC and 596521-263-R-J1-PDC; two breast carcinomas: 171881-019-R-J1-PDC and 885512-296-R-J2-PDC; and one ovarian carcinoma: 6556581-035-R-J-PDC were obtained from the NCI PDMR, (https://pdmr.cancer.gov). The established cell lines HSSY-2 synovial sarcoma (RRID:CVCL 8719), SYO-1 synovial sarcoma (RRID:CVCL_7146), MPNST malignant peripheral neural sheath tumor were obtained from the Sloan Kettering Institute. The following established cell lines were purchased from the American Type Culture Collection (ATCC, Manassas, VA), Sor the received from the NCI repository:, PANC-1 pancreatic carcinoma (CRL-1469, RRID:CVCL_0480), OVCAR-5 ovarian carcinoma (RRID:CVCL_1628), OVCAR-8 ovarian carcinoma (RRID:CVCL_1629), , MCF-7 breast carcinoma (CRL-12584, RRID:CVCL_0031), MDA-MB-231 breast carcinoma (CRL-12532, RRID:CVCL_0062), NCI-H1876 small cell lung carcinoma (CRL-5902, RRID:CVCL_1503), NCI-H510A small cell lung carcinoma (HTB-184, RRID:CVCL_1565), NCI-H1417 (CRL-5869, RRID:CVCL_1469), and NCI-H196 small cell lung carcinoma (CRL-5823, RRID:CVCL_1509). Dr. Peter Houghton (Greehey Children's Cancer Research Institute, University of Texas Health Science Center, San Antonio, TX) provided Rh-18 rhabdomyosarcoma (RRID:CVCL_1659). Pooled donor human umbilical vein endothelial cells (HUVEC, Lonza, cat. CC-2519) and human mesenchymal stem cells (hMSC, Lonza, cat. PT-2501) were purchased from Lonza (Walkersville, MD).
Cell Culture. […]
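Further: spheroids exposed to agents for seven days before readout.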
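Wherever viability, T/C is given: 100% = DMSO vehicle control viability.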

`CCN1CCN(Cc2ccc(Nc3ncc(F)c(-c4cc(F)c5nc(C)n(C(C)C)c5c4)n3)nc2)CC1` + CCN1C(C(=O)NC23CCC(C(=O)O)(CC2)CC3)C(c2cccc(Cl)c2F)C2(C(=O)Nc3cc(Cl)ccc32)C12CCCCC2 was tested, and the IC50 (second compound 0.03 µM) was > 1000 nM, the IC50 (second compound 0.0949 µM) was > 1000 nM and the IC50 (second compound 0.3 µM) was > 1000 nM. The IC50 (second compound 0.949 µM) was > 1000 nM, the IC50 (second compound 3 µM) was 150 nM and the viability, T/C (second compound 0.03 µM, first compound 0.00316 µM) was 102%. It also gave a viability, T/C (second compound 0.03 µM, first compound 0.01 µM) of 99.2%, a viability, T/C (second compound 0.03 µM, first compound 0.0316 µM) of 104% and a viability, T/C (second compound 0.03 µM, first compound 0.1 µM) of 108%. It also gave a viability, T/C (second compound 0.03 µM, first compound 0.316 µM) of 108%, a viability, T/C (second compound 0.03 µM, first compound 1 µM) of 116% and a viability, T/C (second compound 0.0949 µM, first compound 0.00316 µM) of 93.6%. For the same compound, the viability, T/C (second compound 0.0949 µM, first compound 0.01 µM) was 96%, the viability, T/C (second compound 0.0949 µM, first compound 0.0316 µM) was 97.2% and the viability, T/C (second compound 0.0949 µM, first compound 0.1 µM) was 80.5%. For the same compound, the viability, T/C (second compound 0.0949 µM, first compound 0.316 µM) was 88.2%, the viability, T/C (second compound 0.0949 µM, first compound 1 µM) was 75.2% and the viability, T/C (second compound 0.3 µM, first compound 0.00316 µM) was 66.2%. It also gave a viability, T/C (second compound 0.3 µM, first compound 0.01 µM) of 67%, a viability, T/C (second compound 0.3 µM, first compound 0.0316 µM) of 63.3% and a viability, T/C (second compound 0.3 µM, first compound 0.1 µM) of 58.3%. For the same compound, the viability, T/C (second compound 0.3 µM, first compound 0.316 µM) was 69.5%, the viability, T/C (second compound 0.3 µM, first compound 1 µM) was 59.9% and the viability, T/C (second compound 0.949 µM, first compound 0.00316 µM) was 60.5%. The viability, T/C (second compound 0.949 µM, first compound 0.01 µM) was 66.6%, the viability, T/C (second compound 0.949 µM, first compound 0.0316 µM) was 72.1% and the viability, T/C (second compound 0.949 µM, first compound 0.1 µM) was 68.9%. For the same compound, the viability, T/C (second compound 0.949 µM, first compound 0.316 µM) was 83.6%, the viability, T/C (second compound 0.949 µM, first compound 1 µM) was 52% and the viability, T/C (second compound 3 µM, first compound 0.00316 µM) was 48.2%. The viability, T/C (second compound 3 µM, first compound 0.01 µM) was 52.4%, the viability, T/C (second compound 3 µM, first compound 0.0316 µM) was 48.3% and the viability, T/C (second compound 3 µM, first compound 0.1 µM) was 56.4%. It also gave a viability, T/C (second compound 3 µM, first compound 0.316 µM) of 54.7% and a viability, T/C (second compound 3 µM, first compound 1 µM) of 42.2%.
